The source of these data is article PMC6695731, “Application of a Substrate-Mediated Selection with c-Src Tyrosine Kinase to a DNA-Encoded Chemical Library” (Molecules, 2019).

In assay [1] the target is T1, c-Src (Homo sapiens, UniProt P12931). The experiment in a line: radiolabel (32P-ATP) inhibition assay of LYNtide phosphorylation by c-Src. The format is biochemical. The conditions noted are these: 32P-ATP 50 µM, biotinylated-LYNtide 50 µM. As for the experimental part:
The original six off-DNA hits were tested for inhibition of c-Src activity. For these tests, we used ^32P-ATP as a substrate and detected phosphorylation levels of a biotinylated-LYNtide substrate after adsorption to streptavidin coated membranes. This assay should not be affected by activation of ATP hydrolysis or phosphotransfer to the small molecules. […] There was no apparent correlation of these values to the Km or kcat values in the prior assays as substrates.
Each hit molecule was preincubated with 1.2 nM c-Src at 30 °C for 30 min. The kinase reaction was initiated with the addition of 50 μM LYNtide and 50 μM ATP with 0.15 μCi gamma ^32P ATP at 30 °C for 10 min. The kinase reaction samples (2 µL) were spotted on P81 filter paper consisting of 1.5 cm squares. After air dry, the P81 papers were washed 4 times with 0.5% phosphoric acid for 5 min each. The P81 papers were washed one time with acetone for 5 min. The papers were then allowed to air dry for about 20 min. The dried P81 papers were analyzed by liquid scintillation counter.
Figure 6 Inhibition of hit molecules in a radiolabel assay with ^32P-ATP (50 µM) and biotinylated-LYNtide (50 µM) as substrates.

In assay [2] the test system is STAT3 phosphorylation in NME cells. The experiment in a line: cell signaling immunoblot, EGF-stimulated STAT3 phosphorylation (Src-dependent). The format is cell-based, murine. The conditions noted are these: 100 µM prior to EGF (50 ng/mL, 30 min). From the text:
Epidermal growth factor (EGF) stimulation of NME cells leads to STAT3 phosphorylation via a Src-dependent process. […] The broad specificity Src family inhibitor, PP2, was used as a positive control. Importantly, phosphorylation of ERK1/2, which occurs via a Src independent pathway, was not reduced. Similarly, autophosphorylation of EGFR at Y1068 was not affected.
NME cells were constructed via stable overexpression of EGFR in normal murine mammary gland (NMuMG) cells as previously described. These cells were cultured in DMEM containing 10% FBS, 10 μg/mL insulin, penicillin, and streptomycin. For cell signaling assays, cells were plated for 24 h prior to removal of the FBS for an additional 24 h. During this serum starvation, PP2 (Sigma, 529576) or SrcDEL10-ester were added as indicated, and cells were subsequently stimulated with EGF (50 ng/mL) (Goldbio, 1150-04) for 30 min. […] Differential binding of these antibodies was detected using their appropriate secondary antibodies.
NME cells were serum deprived for 24 h in the presence of vehicle control (DMSO), Src family inhibitor PP2 (10 µM), or SrcDEL10-ester (100 µM) for the indicated amounts of time. […] Equal protein aliquots were analyzed by immunoblot with the indicated antibodies. […]
In general terms: A western blot detects proteins with antibodies after separation by electrophoresis.

Another assay deals with Src (Homo sapiens, UniProt P12931). The experiment in a line: HPLC-assessed inhibition of LYNtide phosphorylation. The format is biochemical. As for the experimental part:
Kina se R e a c t ion w it h 1 0 nM Sr c
KR with LynT ide N-Alkyne (50uM)
Kina se R e a c t ion w it h 1 0 nM Sr c + Sr c D E L 1 0
300 ~ 25% phosphorylation
KR with LynT ide N-Alkyne (50uM) + Cmpd 10 (100uM)
Figure S11. […] The kinase reaction
30 min, if applicable) in 1x kinase buffer (as outlined in 4.6 NADH coupled assay, with 1mM ATP) for 30

The target in assay [3] is T1, c-Src. Briefly: on-DNA binding affinity to c-Src by fluorescence polarization in the presence of ATP. The conditions noted are these: ligand linked to 20-mer oligo hybridized to FAM oligo; ATP 100 µM; read-out: binding constant (Kd). As for the experimental part: These studies used the HPLC-purified ligand linked to 20-mer oligos, which were prepared for the prior qPCR validations under crude conditions. This construct was hybridized to a fluorescein-containing complementary oligo, and binding constants were determined by changes observed in fluorescence polarization, as previously described.
(a) on-DNA binding affinity to c-Src measured by fluorescence polarization in the presence of ATP (100 µM). […] Peak identity was verified by LC/MS analysis (Figure S9).

The target in assay [4] is T1, c-Src. Briefly: HPLC and LC/MS analysis of phosphorylation of the compound by c-Src. The assay is classed as biochemical. As for the experimental part: (§1) To confirm this, compounds were tested with an NADH-based, coupled enzyme assay that also detects ADP generation. […] This additionally supported that the ADP-Glo activity observed was due to activation of ATP hydrolysis and not phosphotransfer to these compounds.
(a) on-DNA binding affinity to c-Src measured by fluorescence polarization in the presence of ATP (100 µM). […] Peak identity was verified by LC/MS analysis (Figure S9). […]
Kina se R e a c t ion w it h 1µM Src
Figure S7. HPLC Analysis of LYNtide Phosphorylation. The kinase reaction was performed by incubating 200 µM LYNtide with Src in 1x kinase buffer (as outlined in section 4.6 NADH coupled assay, […]
with 1mM ATP) for 30 min. […] Peak […]
identities were verified by LC/MS. The peak at 19 minutes is an impurity in the LYNtide alkyne preparation, which was also phosphorylated. […]
[M+H ]+ cal cd. […] O OH […]
Figure S9. LC/MS analysis of SrcDEL10 Phosphorylation. […]
µM ATP and 0.3 µM c-Src at 30 C for 16 hours. […]
and 10 µM c-Src at 30 C for 16 hours. […]

Assay [5] addresses T1, c-Src. The experiment in a line: substrate-mediated selection of DNA conjugates (c-Src treatment, anti-phosphotyrosine pulldown), enrichment by qPCR. The assay is classed as biochemical. The conditions noted are these: purified DNA conjugates, with kinase treatment. As for the experimental part: To mimic library selection conditions, a DNA-LYNtide construct was mixed with a control construct at a ratio of 1 to 500. This mixture was treated at 50 nM total DNA concentration with Src kinase and the selection was applied. We observed robust enrichment (2600-fold) and recovery (9%) of the LYNtide construct by qPCR (Figure S3).
We then questioned if SrcDEL10 was indeed selected from the library based on the ability to serve as a Src substrate and accept a phosphate.
For optimization of substrate-based selection, two unique 180-mer constructs were prepared by PCR, as previously described. Each contained two unique 20-mer sequences for specific amplification and detection in qPCR. One was prepared with an unmodified forward primer as a control. The other was prepared using a LYNtide 20-mer oligo conjugate as a primer.
Kinase reaction was performed as follows 1x kinase buffer (25 mM Tris-HCl (pH 7.5), 2 mM dithiothreitol (DTT), 0.1 mM Na3VO4, 10 mM MgCl2), 1 mM ATP, different concentrations (1 μM to 100 μM) of substrates (either off DNA or on DNA hit molecules), and 12 nM rSrc by incubation for 2 h at 30 °C. After that, distinct 55mers were annealed to each kinase reaction, as previously described. […]
Figure S3. […] In a model enrichment assay, enrichment for tyrosine kinase substrates was detected by qPCR of model 180-mer constructs. […]
For orientation: Quantitative PCR measures a nucleic acid by following its amplification.

The target in assay [6] is T1, c-Src. Briefly: NADH-based coupled enzyme assay detecting ADP generation. The note with it: 1 mM ATP, 100 µM compound, 12 nM Src, 30 °C, 3 h. The assay is classed as biochemical. As for the experimental part:
as §1
Kinase reaction was performed as follows 1x kinase buffer (25 mM Tris-HCl (pH 7.5), 2 mM dithiothreitol (DTT), 0.1 mM Na3VO4, 10 mM MgCl2), 1 mM ATP, 100 μM peptides and 12 nM Src at 30 °C for 3 h. The kinase reaction mixture was incubated with 30 unit/mL lactic dehydrogenase (LDH), 20 unit/mL pyruvate kinase (PK), 2 mM phosphoenolpyruvate (PEP), and 1 mM NADH. The absorbance of NADH was monitored at 340 nm.
Figure S8. NADH Coupled Assay of Hit Molecules with c-Src. Samples were composed of 1 mM ATP,
100 µM putative substrate molecules, and 12 nM c-Src kinase at 30 C for 3 hours. Full method description
is provided in Methods and Materials 4.6 NADH assay.

Assay [7] has as its target T1, c-Src. The experiment in a line: ADP-Glo assay of compounds as c-Src substrates (ADP production). The format is biochemical. As for the experimental part: Hit molecules were initially characterized as substrates for c-Src using the luciferase-based ADP-Glo assay (Promega). All six molecules appeared to be efficient substrates for Src kinase.
Kinase reaction was performed as follows 1x kinase buffer (25 mM Tris-HCl (pH 7.5), 2 mM dithiothreitol (DTT), 0.1 mM Na3VO4, 10 mM MgCl2), 1 mM ATP, different concentrations (1 μM to 100 μM) of substrates (either off DNA or on DNA hit molecules), and 12 nM rSrc by incubation for 2 h at 30 °C. After that, distinct 55mers were annealed to each kinase reaction, as previously described. The annealed reactions were incubated with anti Pho-Tyr loaded protein G magnetic bead at RT for 30 min. After washing by three times 20 μL 1xPBST with 1 mg/mL BSA, 1 mg/mL tRNAs), the captured samples were eluted by 20 μL of 1 mM phenylphosphate. The resulting supernatant was then used as a template in qPCR.
After the kinase reaction was performed as previous section, the reaction mixture (5 μL) was incubated with 5 µL of ADP-Glo™ reagent at RT for 40 min and then add 10 µL of kinase detection reagent at RT for 1 h. The luminescence was measure by plate reader.

Assay [8] deals with c-Src. The note with it: LYNtide kinetic parameters for Src; cited from earlier work.
Setting [9] is: Table S3, ADP-Glo assay of SrcDEL10 derivatives, enzyme Src.

“And” between values parts separate entries of the source, which are not always exact repeats. Equal values may be shown once. “Also recorded” adds a separate entry of the source.

As usually defined, the IC50 is the midpoint of a concentration-inhibition curve. What is called inhibition is how much of the control response was suppressed. Broadly, the Kd is the free concentration of one partner at which half of the binding sites on the other are occupied at equilibrium, for simple one-to-one binding. The term kcat denotes the maximal rate divided by the concentration of active sites. A word on the Km: it is the substrate concentration at which the rate is half of its maximum. In general, Vmax refers to the rate approached at saturating substrate.

On c-Src [1], `NC(=O)CN(CCc1ccc(O)cc1)C(=O)[C@H](CC(=O)O)NC(=O)c1ccc(CN(CC2CC2)C(=O)CCO)cc1` [SrcDEL10] registered an IC50 of 48 µM. In addition, in assay [2], the “STAT3 phosphorylation levels after EGF stimulation” value is “No reduction”. For the same molecule, the inhibition at 100 µM on Src is around 50%. Moreover, the “LYNtide phosphorylation in presence of compound” value at Src (100 µM SrcDEL10, 50 µM LYNtide, 10 nM Src, 50% without compound) is listed as ~ 25%. Moreover, the Kd on c-Src [3] came out at 7.5 µM. Further, the “SrcDEL10-phos. fraction by LC/MS” value at c-Src [4] (SrcDEL10 100 µM, 100 µM ATP, 10 µM c-Src, 30 C, 16 hours (Figure S9b)) was determined as 54%. Moreover, at c-Src [4] (enzyme 1 µM, SrcDEL10 200 µM, ATP 1 mM, HPLC, LC/MS), the phosphorylated compound formed is ~ 1%.
As for “DEDIYGVLP [LYNtide, optimal peptide substrate for Lyn tyrosine kinase, a Src family kinase, reference compound]”, in the assay with c-Src [5], the “enrichment in qPCR selection assay” value is listed as 10,000 fold. The “ADP generation relative to compound” value with c-Src [6] is “approximately one equivalent”. The kcat in the assay with c-Src [7] (ADP-Glo assay) is 6.5 s⁻¹; in the assay with c-Src [7] (setting [9]), 6.47 s⁻¹; in the assay on c-Src [8], 2.0 s⁻¹. Moreover, the Km with c-Src [7] (ADP-Glo assay, compound as substrate of c-Src) is 5 µM and 5.2 µM; with c-Src [7] (setting [9]), 5.23 µM; with c-Src [8], 18 µM. The Vmax with c-Src [7] (setting [9]) came to 1.17 µM/min. In addition, the “extent of phosphorylation” value with c-Src [4] (1 µM c-Src, 200 µM LYNtide, 1 mM ATP, 30 min) was “full phosphorylation; also recorded: fully phosphorylated”.
